From US5795861A, “Methods for regulating gastrointestinal motility” (Amylin Pharmaceuticals Inc., priority 1995, dated 1998)

Tests used:
[1] = solubility and stability compared to human amylin; type: physicochemical
[2] = plasma AC-0137 levels after IV bolus or infusion (clinical study); type: in vivo, human; settings: after IV bolus injection
Description: Subjects in each dose group underwent a two period crossover to examine intravenous (IV) bolus versus IV infusion of drug. Each period consisted of a three-day confinement to the study unit. On each occasion, the initial day of confinement was allowed for acclimatization to the study unit. The second and third days constituted an imbedded crossover of placebo versus active medication. […] An imbedded cross-over design for the administration of drug and placebo on Days 2 and 3 of this admission was employed in a manner similar to that used during the first admission. The six subjects assigned to the placebo group received placebo on each of the study days.
On study days, intravenous catheters were inserted at least 30 minutes prior to the start of the study. 15 minutes before dosing, the subjects took their usual insulin dose via subcutaneous injection. […] The infusion rate was designed to administer the assigned amount of drug over the two hour period. Thirty minutes later, the subjects ingested their normal breakfasts.

- disappearance of drug from the plasma compartment [2]: apparent first-order kinetics
SMILES: CC[C@H](C)[C@H](NC(=O)[C@@H]1CCCN1C(=O)CNC(=O)[C@H](Cc1ccccc1)NC(=O)[C@H](CC(N)=O)NC(=O)[C@H](CC(N)=O)NC(=O)[C@H](CO)NC(=O)[C@H](CO)NC(=O)[C@H](Cc1c[nH]cn1)NC(=O)[C@@H](NC(=O)[C@H](CC(C)C)NC(=O)[C@H](Cc1ccccc1)NC(=O)[C@H](CC(N)=O)NC(=O)[C@H](C)NC(=O)[C@H](CC(C)C)NC(=O)[C@H](CCCNC(=N)N)NC(=O)[C@H](CCC(N)=O)NC(=O)[C@@H](NC(=O)[C@H](C)NC(=O)[C@@H]1CSSC[C@H](NC(=O)[C@@H](N)CCCCN)C(=O)N[C@@H](CC(N)=O)C(=O)N[C@@H]([C@@H](C)O)C(=O)N[C@@H](C)C(=O)N[C@@H]([C@@H](C)O)C(=O)N1)[C@@H](C)O)C(C)C)C(=O)N[C@@H](CC(C)C)C(=O)N1CCC[C@H]1C(=O)N1CCC[C@H]1C(=O)N[C@H](C(=O)N[C@@H](CC(N)=O)C(=O)N[C@H](C(=O)NCC(=O)N[C@@H](CO)C(=O)N[C@@H](CC(N)=O)C(=O)N[C@H](C(=O)N[C@@H](Cc1ccc(O)cc1)C(N)=O)[C@@H](C)O)C(C)C)[C@@H](C)O [AC-0137, ^25,28,29 Pro-h-amylin]
- solubility and stability characteristics [1]: more desirable solubility and stability characteristics
